Measured values as given in patent US20200297790A1, “HERBAL COMPOSITION FOR PREVENTING OR TREATING BENIGN PROSTATIC HYPERPLASIA DISEASE” (priority 2017, published 2020).

How the values were obtained:
[1] = test system: testosterone-induced benign prostatic hyperplasia rat model; assay: Size of acinus in excised prostate tissue (H&E staining) of testosterone-induced benign prostatic hyperplasia rat model; assay type: in vivo; settings: extracts 300 mg/kg or finasteride 10 mg/kg orally, 30 days
Procedure: For the control, the same amount of cotton seed oil was subcutaneously injected. […] For the negative control, oral administration of distilled water alone was carried out. From the starting day of the test, the rats were weighed five times in total at regular intervals of one week. On the next day after the final administration and treatment, the rats were sacrificed with carbon dioxide gas. The prostate glands were excised and weighed. % Inhibition of prostate enlargement was expressed according to the following mathematical formula on the basis of the weight measurements. […] Slides of the stained tissues were observed and photographed with an optical microscope. From the images, sizes of the acini in the prostate glands were measured. The reduction in the size of acinus of each experimental group is expressed as a percentage relative to the size of acinus of the normal group.

[2] = Body weight change in testosterone-induced benign prostatic hyperplasia rat model; assay type: in vivo; settings: weighed weekly, five times; extracts 300 mg/kg or finasteride 10 mg/kg orally, 30 days; FIG. 4
Text: (§1) After being acclimated for one week or longer, male SD rats 9 weeks old (weighing 350 g or less) were divided on the basis of weight into (1) a normal group, (2) a benign prostatic hyperplasia-induced and distilled water-administered group (negative control), (3) benign prostatic hyperplasia-induced and composite herbal extract-administered group ([…]), (4) benign prostatic hyperplasia-induced and single Semen Cuscutae herbal extract-administered group (Comparative Example 1-1), (5) benign prostatic hyperplasia-induced and single Semen nelumbinis herbal extract-administered group (Comparative Example 1-2), (6) benign prostatic hyperplasia-induced and single Taraxaci Herba herbal extract-administered group (Comparative Example 1-3), and (7) benign prostatic hyperplasia-induced and finasteride-administered group (positive control). In order to induce benign prostatic hyperplasia, testosterone (dissolved in cotton seed oil) was subcutaneously injected at a dose of 3 mg/kg once/three days for a total of 10 times. For the control, the same amount of cotton seed oil was subcutaneously injected. The composite herbal extract of Preparation Example 1-6 and the single herbal extracts of Comparative Example 1 were each orally administered at a dose of 300 mg/kg once a day for 30 days. […]

[3] = test system: testosterone-induced benign prostatic hyperplasia rat model; assay: Inhibition of prostate enlargement (prostate weight) in testosterone-induced benign prostatic hyperplasia rat model; assay type: in vivo; settings: SD rats, testosterone 3 mg/kg s.c., extracts 300 mg/kg or finasteride 10 mg/kg orally once a day for 30 days
Text: as §1

[4] = test system: LNCaP cells; assay: Inhibition of testosterone-induced proliferation of prostate epithelial cell line (MTT assay); assay type: cell-based, human; settings: 2 μM testosterone alone, 72 hours
Procedure: LNCaP cells, which are the prostate epithelial cells derived from human prostate cancer, were seeded at a density of 1×10^5 cells/well in 24-well plates containing an RPMI medium (Gibco U.S.A) and stabilized overnight. Then, the cells were cultured for 24 hours in a serum-free medium. After removal of the medium, the cells were incubated for 72 hours with 2 μM of testosterone (Tes) alone or in combination with 50, 100, or 200 μg/ml of the composite herbal extract of Preparation Example 1-6 or 4. Thereafter, growth of the cells was evaluated by MTT assay. Cell proliferation data were expressed as percentages of the cell counts relative to that of the Tes-treated group.
LNCaP cells, which are the prostate epithelial cells derived from human prostate cancer, were seeded at a density of 1×10^5 cells/well in 24-well plates containing an RPMI medium (Gibco, U.S.A) and stabilized overnight. […] Thereafter, growth of the cells was evaluated by MTT assay. Cell proliferation data were expressed as percentages of the cell counts relative to that of the Tes-treated group.
LNCaP cells, which are the prostate epithelial cells derived from human prostate cancer, were seeded at a density of 1×10^5 cells/well in 24-well plates containing an RPMI medium (Gibco, U.S.A) and stabilized overnight. […] Thereafter, growth of the cells was evaluated by MTT assay. […]

SMILES | Reductive effect on size of acinus (%) [1] | Size of acinus (%) ([1]; percentage relative to normal group) | body weight difference among testosterone-treated groups [2] | Prostate weight/body weight [3] | % Inhibition of prostate enlargement ([3]; vs negative control) | growth of prostate epithelial cells when treated with testosterone [4]
CC(C)(C)NC(=O)[C@H]1CC[C@H]2[C@@H]3CC[C@H]4NC(=O)C=C[C@]4(C)[C@H]3CC[C@]12C [Finasteride] | 42% | 279 ± 10% | significant differences in body weight were not observed | 1.31 ± 0.10 g/kg | 43% | –
C[C@]12CC[C@H]3[C@@H](CCC4=CC(=O)CC[C@@]43C)[C@@H]1CC[C@@H]2O [testosterone] | – | – | – | – | – | about 62.5%
